Results: patent US20260314599A1, “NEW USE OF PYDIFLUMETOFEN” (SYNGENTA CROP PROTECTION AG, priority 2022, published 2026)
In brackets after ≈: the same amount, converted by molar mass. Several values for one entry are separate records, joined by “and”; a condition that tells them apart may be missing. Identical values can stand only once.

Columns and labels:
Ustilaginoidea virens [1] = assay: In vitro activity of pydiflumetofen and other active ingredients against rice false smut, mycelial growth method (Example 2); format: cell-based; conditions: for EC50: mycelial growth, same protocol as Example 1
Procedure: (§1) Ustilaginoidea virens, the pathogens that cause rice false smut, were isolated from infected rice tissues and stored at 4° C. Pathogen was applied to the PSA plate and incubated at 28° C. for 7 days. Mycelial plugs at the edge of the colony were prepared by hole puncher with a diameter of 5 mm. Pydiflumetofen was dissolved into dimethyl sulfoxide (DMSO) to get 4×10^4 μg/mL for stock solution. Mixing PSA culture medium with stock solution of pydiflumetofen to get different series of concentration: 0, 0.0005, 0.0010, 0.0025, 0.0040, 0.0055, and 0.007 μg/mL. Using the mycelial growth method, the mycelial plugs were shifted to the center of PSA medium plates containing different pydiflumetofen concentrations. […] EC50 values were determined by the fitted regression line of the log-transformed percentage inhibition plotted against the log-transformed fungicide concentration.
Using the same protocol as for Example 1 (above), the activity of pydiflumetofen against rice false smut was compared to that of other fungicidal active ingredients.
EC50 values were determined by the fitted regression line of the log-transformed percentage inhibition plotted against the log-transformed fungicide concentration. The lower the EC50 value, the higher the activity.

rice false smut [2] = assay: Field trial, efficacy against rice false smut at 38 days after application (Example 3); format: in vivo, Ustilaginoidea virens; conditions: 60-75 gai/ha
Text: (§2) • Application Method: Foliar Spray • Water Volume: 450 L/ha • Number of Applications: 1 • Application Timing: BBCH 45-47
A scale/index of 0 to 9 was used to define the level of disease severity, wherein 0 represents a healthy plant and 9 represents high levels/severe symptoms of disease. Each plant was graded on this 0 to 9 scale and the Disease Index calculated using the following formula:
Disease Index (DI)=[sum(class frequency×scpre of rating class)]/[(total number of plants)×(maximal disease index)]×100.

Ustilaginoidea virens [3] = assay: In vitro activity against rice false smut by mycelial growth method (Example 1); format: cell-based; conditions: for Average mycelium growth diameter: untreated 35.63; for Mycelium diameter, Average: average of 8, untreated 40.63; for Mycelium diameter: individual replicates 1-8
Procedure: Example 1-In Vitro Activity of Pydiflumetofen Against Rice False Smut (Caused by Ustilaginoidea Virens) by Mycelial Growth Method
as §1
As stated above, EC50 values were determined by the fitted regression line of the log-transformed percentage inhibition plotted against the log-transformed fungicide concentration. The lower the EC50 value, the higher the activity.

rice false smut [4] = assay: Field trial, efficacy against rice false smut at 77 days after application (Example 4); format: in vivo, Ustilaginoidea virens; conditions: 75 gai/ha
Text: as §2

[5] = Ustilaginoidea virens, read-out: EC50

Question: Which EC50 (Ustilaginoidea virens [1]; [5]) does the source give for `CC(C1CC1)C(O)(Cn1cncn1)c1ccc(Cl)cc1` (stereo not drawn) [Cyproconazole] here?
Answer: 0.0387 µg/mL (≈ 0.133 µM)

Question: Which EC50 (Ustilaginoidea virens [1]; [5]) does the source give for `CC1(C)CCC(Cc2ccc(Cl)cc2)C1(O)Cn1cncn1` (stereo not drawn) [Metconazole] here?
Answer: 0.041 µg/mL (≈ 0.128 µM)

Question: For `CCCC1COC(Cn2cncn2)(c2ccc(Cl)cc2Cl)O1` (stereo not drawn) [Propiconazole], which EC50 (Ustilaginoidea virens [1]; [5]) is on record?
Answer: 0.0205 µg/mL (≈ 0.0599 µM)

Question: With `OC(Cc1ccccc1Cl)(Cn1nc[nH]c1=S)C1(Cl)CC1` (stereo not drawn) [Prothioconazole] as the compound, how does the EC50 (Ustilaginoidea virens [1]; [5]) read?
Answer: 3.11 µg/mL (≈ 9.03 µM)

Question: What does the source list for `CON(C(=O)c1cn(C)nc1C(F)F)C(C)Cc1c(Cl)cc(Cl)cc1Cl` (stereo not drawn) [Pydiflumetofen, 3-(difluoromethyl)-N-methoxy-1-methyl-N-[1-methyl-2-(2,4,6-trichloro-phenyl)ethyl]-1H-pyrazole-4-carboxamide]?
Answer: control against rice false smut in the field (in words) (rice false smut [2]): good control; Average mycelium growth diameter (Ustilaginoidea virens [3]; 0.0005 μg/mL, 28° C., 14 days): 33.13 mm; Mycelium diameter, Average (Ustilaginoidea virens [3]; 0.0005 μg/mL, 28° C., 14 days): 38.13 mm; Mycelium diameter (Ustilaginoidea virens [3]; 0.0005 μg/mL, 28° C., 14 days): 37 mm and 38 mm (5×) and 39 mm (2×); Average mycelium growth diameter (Ustilaginoidea virens [3]; 0.0010 μg/mL, 28° C., 14 days): 28.63 mm; Mycelium diameter, Average (Ustilaginoidea virens [3]; 0.0010 μg/mL, 28° C., 14 days): 33.63 mm; Mycelium diameter (Ustilaginoidea virens [3]; 0.0010 μg/mL, 28° C., 14 days): 32 mm (2×) and 34 mm (2×) and 33 mm (2×) and 35 mm and 36 mm; Average mycelium growth diameter (Ustilaginoidea virens [3]; 0.0025 μg/mL, 28° C., 14 days): 20.75 mm; Mycelium diameter, Average (Ustilaginoidea virens [3]; 0.0025 μg/mL, 28° C., 14 days): 25.75 mm; Mycelium diameter (Ustilaginoidea virens [3]; 0.0025 μg/mL, 28° C., 14 days): 25 mm (4×) and 26 mm (3×) and 28 mm; Average mycelium growth diameter (Ustilaginoidea virens [3]; 0.0040 μg/mL, 28° C., 14 days): 19.50 mm; Mycelium diameter, Average (Ustilaginoidea virens [3]; 0.0040 μg/mL, 28° C., 14 days): 24.50 mm; Mycelium diameter (Ustilaginoidea virens [3]; 0.0040 μg/mL, 28° C., 14 days): 24 mm (4×) and 25 mm (4×); Average mycelium growth diameter (Ustilaginoidea virens [3]; 0.0055 μg/mL, 28° C., 14 days): 17.75 mm; Mycelium diameter, Average (Ustilaginoidea virens [3]; 0.0055 μg/mL, 28° C., 14 days): 22.75 mm; Mycelium diameter (Ustilaginoidea virens [3]; 0.0055 μg/mL, 28° C., 14 days): 22 mm (3×) and 23 mm (4×) and 24 mm; Average mycelium growth diameter (Ustilaginoidea virens [3]; 0.0070 μg/mL, 28° C., 14 days): 7.75 mm; Mycelium diameter, Average (Ustilaginoidea virens [3]; 0.0070 μg/mL, 28° C., 14 days): 12.75 mm; Mycelium diameter (Ustilaginoidea virens [3]; 0.0070 μg/mL, 28° C., 14 days): 13 mm (6×) and 12 mm (2×); inhibition at 0.0005 µg/mL (Ustilaginoidea virens [3]; Ustilaginoidea virens, 336 h, 0.0005 μg/mL, 28° C., 14 days): 7.02%; inhibition at 0.001 µg/mL (Ustilaginoidea virens [3]; Ustilaginoidea virens, 336 h, 0.0010 μg/mL, 28° C., 14 days): 19.6%; inhibition at 0.0025 µg/mL (Ustilaginoidea virens [3]; Ustilaginoidea virens, 336 h, 0.0025 μg/mL, 28° C., 14 days): 41.8%; inhibition at 0.004 µg/mL (Ustilaginoidea virens [3]; Ustilaginoidea virens, 336 h, 0.0040 μg/mL, 28° C., 14 days): 45.3%; inhibition at 0.0055 µg/mL (Ustilaginoidea virens [3]; Ustilaginoidea virens, 336 h, 0.0055 μg/mL, 28° C., 14 days): 50.2%; inhibition at 0.007 µg/mL (Ustilaginoidea virens [3]; Ustilaginoidea virens, 336 h, 0.0070 μg/mL, 28° C., 14 days): 78.2%; EC50 (Ustilaginoidea virens [3]; Ustilaginoidea virens, 336 h, mycelial growth, PSA, 28° C., 14 days): 0.0037 µg/mL (≈ 0.00867 µM); activity against Ustilaginoidea virens (in words) (Ustilaginoidea virens [3]; mycelial growth): very high activity; control against rice false smut in the field (in words) (rice false smut [4]): good control; EC50 (Ustilaginoidea virens [1]; [5]): 0.0045 µg/mL (≈ 0.0105 µM); activity against Ustilaginoidea virens (in words) (Ustilaginoidea virens [1]; compared to fungicides commonly used to treat rice false smut): very high activity

Question: How did the EC50 (Ustilaginoidea virens [1]; [5]) turn out when `CC(C)(C)C(O)(CCc1ccc(Cl)cc1)Cn1cncn1` (stereo not drawn) [Tebuconazole] was run?
Answer: 0.0761 µg/mL (≈ 0.247 µM)

Question: How did the EC50 (Ustilaginoidea virens [1]) turn out when Epoxiconazole was run?
Answer: 0.0086 ppm
